This passage reports TGI results from PubChem BioAssay (NCI).

Molecules are shown by their SMILES.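 Following 48 hours of exposure in 96-well plates, responses at five concentrations were used to interpolate endpoints linearly. TGI: concentration producing complete growth inhibition.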 Where only a bound is given, the exact number is not on record here.

Common to all, as to assay: growth of human tumour cells (NCI), 48 h
Assay [1] relates to SNB-75 CNS.
The subject of assay [2] is OVCAR-3 ovarian.
The subject of assay [3] is LOX IMVI melanoma.
The subject of assay [4] is HT29 colon.
Assay [5] has as its system NCI-H226 lung.
The test system of assay [6] is A498 renal.
For assay [7], the system named is DU-145 prostate.
Assay [8] concerns RPMI-8226 leukemia.
The subject of assay [9] is HCT-15 colon.
The subject of assay [10] is MCF7 breast.

For `C=CCCN1CCc2c([nH]c3ccccc23)C1C(=O)O` (stereo not given), the TGI in assay [1], in assay [2], in assay [3], in assay [4], in assay [5] and in assay [6] was > 100 µM each time.
Take `COc1ccc(C(=C(Cl)c2ccccc2)c2ccc(OC)cc2)cc1`: the TGI in assay [7], in [2], in assay [3], in assay [8], in [4] and in assay [9] was > 100 µM each time. In addition, the TGI in assay [5], in assay [10] and in assay [6] was > 100 µM each time.
Take `COc1cccc(-c2ccc3c4c2O[C@H]2C(=O)CC[C@@]5(O)[C@@H](C3)N(CC3CC3)CC[C@]425)c1`: the TGI in assay [7] stood at 63.4 µM; in assay [2], 27.6 µM; in assay [3], 30.9 µM; in assay [8], 30.9 µM; in assay [4], 24.6 µM; in assay [9], 29.3 µM. The figures for the TGI in assay [5], in assay [10] and in assay [6] were 26.8 µM, 31 µM and 34.1 µM, respectively.
Take `CCN(CC)C(=O)Cn1c(C)cc2ccccc21`: the TGI in assay [7], in [1], in [2], in [3], in assay [8] and in [4] was > 100 µM throughout. Moreover, the TGI in assay [9], in [5] and in assay [10] was > 100 µM throughout.
As for `O=C(NNC(=S)Nc1cccc(Cl)c1)c1cc(-c2ccccc2)nc2ccccc12`, the TGI in assay [7] is 29.5 µM; in [1], 66.5 µM; in [2], 34.3 µM; in [8] it was 75.3 µM; in [4], 45.3 µM; in [9], 29.6 µM. The TGI worked out at 40.5 µM in assay [5] and 23 µM in assay [10].
As to `CN1CCC(O)(C(C)(C)C)CC1`, the TGI in [7], in [1], in [2], in [3], in assay [8] and in assay [4] was > 100 µM each time. For the same compound, the TGI in assay [9], in assay [5] and in assay [10] was > 100 µM in each case.
With `Oc1ccc(-c2nc(-c3cccnc3)c(-c3ccc(Cl)cc3)[nH]2)cc1`, the TGI in [7] is 29.4 µM; in [1], 19.9 µM; in assay [2] it was 28 µM; in assay [3] it was 24 µM; in [8], 30 µM; in assay [4], 28.4 µM. Besides, the TGI in [9] turned out to be 25.2 µM; in assay [5] it was 33.3 µM; in assay [10], 24.7 µM.
Turning to `c1ccc2c(c1)ccn2CCc1c[nH]c2ccccc12`, the TGI in assay [7], in assay [1], in [2], in assay [3], in [8] and in assay [4] was > 10 µM throughout. Also, the TGI in [9], in assay [5] and in assay [10] was > 10 µM each time.
For the compound `O=C1CC(=Nc2ccc(Cl)cc2)C(c2ccccc2)N1c1ccccc1` (stereo not given), the TGI is 53 µM in assay [7]; 14.5 µM in [2]; 61.5 µM in [3]; 13.1 µM in assay [8]; 37.4 µM in [4]; > 100 µM in assay [9]. The TGI in assay [5] was 85.7 µM; in assay [10], > 100 µM; in assay [6], > 100 µM.
With `COC1C=CC(O)C(CO)O1` (stereo not given), the TGI in assay [1], in assay [2], in [3], in [4] and in assay [9] was > 100 µM in each case.
On to `NC(N)=N/N=C/c1c[nH]c2ccccc12`, for which the TGI in assay [1], in [2], in assay [3], in [8], in [4] and in assay [9] was > 100 µM throughout. For the same compound, the TGI in [5] is > 100 µM.
On to `O=Cc1ccc2c(c1)CC1(Cc3ccccc3C1)C2`, for which the TGI in [2] worked out at 28.3 µM; in [3], 37.9 µM; in [8], 53.4 µM; in assay [4], 51.2 µM; in [9], 73.4 µM; in [5], 73.2 µM. For the same compound, the TGI in [10] is 66.4 µM; in [6], 83.7 µM.
As for `Cc1ccc(-c2c(C#N)c(-c3ccc(Cl)cc3)c(C#N)c(=O)n2NS(=O)(=O)c2ccc(C)cc2)cc1`, the TGI in assay [1] is > 100 µM; in [3], 58 µM; in assay [4] it was > 100 µM; in assay [9], > 100 µM; in assay [5] it was > 100 µM; in assay [10], 36.5 µM. Further, the TGI in [6] amounted to 86.3 µM.
Regarding `OCC(O)COCn1nncc1Cn1ncc2c(SCc3ccccc3)ncnc21` (stereo not given), the TGI in assay [7], in assay [2], in assay [3], in assay [4], in assay [9] and in assay [10] was > 100 µM each time. Moreover, in assay [6], the TGI is > 100 µM.
For `Cc1ccc(/C=C2\CCCc3ccccc3C2=O)cc1`, the TGI in [7] is > 100 µM; in [1], > 100 µM; in assay [2], 50.8 µM; in [3], 30 µM; in [8] it was 75 µM; in assay [4] it was 18.5 µM. In addition, the TGI in assay [9] came to 27.2 µM; in [5], 36.1 µM; in assay [10], 47.3 µM.
